According to PubChem BioAssay AID330 (DTP/NCI, 2004):
Values joined by “and” are separate entries in the source; they are usually repeats but may differ in a detail not shown here. Equal entries are not always repeated. Inconclusive results and toxic doses are left out. The calls were made as follows: active = survival T/C of 150% or more; inactive = T/C below 125% in these data.

Tested on: P388 leukemia ip, CD2F1 mice, survival T/C
Assay: NCI In Vivo Anticancer Drug Screen. Data for tumor model P388 Leukemia (intraperitoneal) in CD2F1 (CDF1) mice
Details: endpoint: median survival time, higher = longer survival
Method in brief: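 Mice carrying the transplanted tumor received test compound or vehicle. Survival was recorded in each group, and the value is the treated-group measurement divided by that of the vehicle-treated control group.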

[1] = dose: 25.0 mg/kg/injection, schedule: Q01DX009 (ip), vehicle: Klucel (hydroxypropylcellulose) (HPC)
[2] = dose: 25.0 mg/kg/injection, schedule: Q01DX009 (ip), vehicle: saline
[3] = dose: 50.0 mg/kg/injection, schedule: Q01DX009 (ip), vehicle: Klucel (hydroxypropylcellulose) (HPC)
[4] = dose: 100.0 mg/kg/injection, schedule: Q01DX009 (ip), vehicle: Klucel (hydroxypropylcellulose) (HPC)
[5] = dose: 200.0 mg/kg/injection, schedule: Q01DX009 (ip), vehicle: Klucel (hydroxypropylcellulose) (HPC)
[6] = dose: 50.0 mg/kg/injection, schedule: Q01DX005 (ip), vehicle: Klucel (hydroxypropylcellulose) (HPC)
[7] = dose: 100.0 mg/kg/injection, schedule: Q01DX005 (ip), vehicle: Klucel (hydroxypropylcellulose) (HPC)
[8] = dose: 200.0 mg/kg/injection, schedule: Q01DX005 (ip), vehicle: Klucel (hydroxypropylcellulose) (HPC)
[9] = dose: 120.0 mg/kg/injection, schedule: Q01DX005 (ip), vehicle: saline with Tween-80
[10] = dose: 60.0 mg/kg/injection, schedule: Q01DX005 (ip), vehicle: saline with Tween-80
[11] = dose: 240.0 mg/kg/injection, schedule: Q01DX005 (ip), vehicle: saline with Tween-80
[12] = dose: 50.0 mg/kg/injection, schedule: Q01DX005 (ip), vehicle: saline with Tween-80
[13] = dose: 100.0 mg/kg/injection, schedule: Q01DX005 (ip), vehicle: saline with Tween-80
[14] = dose: 200.0 mg/kg/injection, schedule: Q01DX005 (ip), vehicle: saline with Tween-80
[15] = dose: 100.0 mg/kg/injection, schedule: Q04DX003 (ip), vehicle: Klucel (hydroxypropylcellulose) (HPC)
[16] = dose: 200.0 mg/kg/injection, schedule: Q04DX003 (ip), vehicle: Klucel (hydroxypropylcellulose) (HPC)

Measured: T/C

CC(=O)Nc1ccc[nH]c1=O
inactive: [1] 108 % of control and 96 % of control | [2] 99 % of control and 110 % of control | [3] 99 % of control and 104 % of control | dose: 50.0 mg/kg/injection, schedule: Q01DX009 (ip), vehicle: saline 108 % of control and 92 % of control | [4] 99 % of control and 104 % of control | dose: 100.0 mg/kg/injection, schedule: Q01DX009 (ip), vehicle: saline 103 % of control and 117 % of control | [5] 101 % of control and 96 % of control | dose: 200.0 mg/kg/injection, schedule: Q01DX009 (ip), vehicle: saline 101 % of control and 103 % of control | dose: 400.0 mg/kg/injection, schedule: Q01DX009 (ip), vehicle: Klucel (hydroxypropylcellulose) (HPC) 109 % of control and 96 % of control | dose: 400.0 mg/kg/injection, schedule: Q01DX009 (ip), vehicle: saline 104 % of control and 108 % of control

COc1ccc(C2c3cc4c(cc3OC(C)(OC)C2C)OCO4)cc1 (stereo unspecified)
inactive: dose: 6.25 mg/kg/injection, schedule: Q01DX005 (ip), vehicle: Klucel (hydroxypropylcellulose) (HPC) 95 % of control | dose: 12.5 mg/kg/injection, schedule: Q01DX005 (ip), vehicle: Klucel (hydroxypropylcellulose) (HPC) 87 % of control | dose: 25.0 mg/kg/injection, schedule: Q01DX005 (ip), vehicle: Klucel (hydroxypropylcellulose) (HPC) 87 % of control

Cc1ccc2c(c1)C1(C)OC(C=CC1S(=O)c1ccccc1)O2 (stereo unspecified)
inactive: [6] 102 % of control | [7] 101 % of control | [8] 113 % of control

Cc1nc2ncnc(Cl)c2[nH]1
inactive: dose: 50.0 mg/kg/injection, schedule: Q01DX005 (ip), vehicle: saline 99 % of control | dose: 100.0 mg/kg/injection, schedule: Q01DX005 (ip), vehicle: saline 105 % of control | dose: 200.0 mg/kg/injection, schedule: Q01DX005 (ip), vehicle: saline 96 % of control

CCc1nc(N)nc(N)c1-c1ccc(NCCCCCCCCCCCCN)c([N+](=O)[O-])c1
inactive: dose: 15.0 mg/kg/injection, schedule: Q01DX005 (ip), vehicle: saline with Tween-80 117 % of control | dose: 30.0 mg/kg/injection, schedule: Q01DX005 (ip), vehicle: saline with Tween-80 107 % of control | [9] 91 % of control

CC1CC(=O)c2cc3oc(=O)n(C)c3cc21 (stereo unspecified)
inactive: [6] 105 % of control | [7] 94 % of control

Cc1c(C)[n+](=O)c2ccc(/C=N/N3CCOC3=O)cc2n1[O-]
inactive: dose: 6.25 mg/kg/injection, schedule: Q01DX009 (ip), vehicle: Klucel (hydroxypropylcellulose) (HPC) 106 % of control | dose: 12.5 mg/kg/injection, schedule: Q01DX009 (ip), vehicle: Klucel (hydroxypropylcellulose) (HPC) 97 % of control | [1] 102 % of control | [4] 90 % of control

COc1cccc2c1CCC(=O)C2C (stereo unspecified)
inactive: [6] 107 % of control | [7] 100 % of control | [8] 104 % of control

O=c1c(N=Nc2ccc(Br)cc2)c(O)n(-c2ccc(Cl)cc2)c(=S)n1-c1ccc(Br)cc1
inactive: dose: 100.0 mg/kg/injection, schedule: Q01DX001 (ip), vehicle: saline with Tween-80 96 % of control | dose: 200.0 mg/kg/injection, schedule: Q01DX001 (ip), vehicle: saline with Tween-80 95 % of control | dose: 400.0 mg/kg/injection, schedule: Q01DX001 (ip), vehicle: saline with Tween-80 89 % of control

S=C(SCc1cc(Cl)cc2c1OCOC2)N1CCSCC1
inactive: [10] 105 % of control | [9] 92 % of control | [11] 92 % of control

CCCCCCCCCCC(O)C1CCC(C2CCC(C(O)C(=O)CCCCCCCCCCCC3CC(C)OC3=O)O2)O1 (stereo unspecified)
inactive: dose: 0.35 mg/kg/injection, schedule: Q01DX005 (ip), vehicle: Klucel (hydroxypropylcellulose) (HPC) 107 % of control and 115 % of control | dose: 0.7 mg/kg/injection, schedule: Q01DX005 (ip), vehicle: Klucel (hydroxypropylcellulose) (HPC) 112 % of control and 119 % of control | dose: 1.4 mg/kg/injection, schedule: Q01DX005 (ip), vehicle: Klucel (hydroxypropylcellulose) (HPC) 120 % of control

CC(C)(Br)C(C)(C)OO
inactive: dose: 18.75 mg/kg/injection, schedule: Q04DX003 (ip), vehicle: Klucel (hydroxypropylcellulose) (HPC) 104 % of control | dose: 37.5 mg/kg/injection, schedule: Q04DX003 (ip), vehicle: Klucel (hydroxypropylcellulose) (HPC) 112 % of control | dose: 75.0 mg/kg/injection, schedule: Q04DX003 (ip), vehicle: Klucel (hydroxypropylcellulose) (HPC) 104 % of control

CCOC(=O)C1(n2[nH]c(=O)n(-c3ccccc3)c2=O)CC(C)(C)OC1=O (stereo unspecified)
inactive: [3] 106 % of control | [4] 98 % of control | [5] 98 % of control

COC(=O)Cc1cc(=O)[nH][nH]1
inactive: dose: 50.0 mg/kg/injection, schedule: Q01DX001 (ip), vehicle: suspension in saline 93 % of control | dose: 100.0 mg/kg/injection, schedule: Q01DX001 (ip), vehicle: suspension in saline 95 % of control | dose: 200.0 mg/kg/injection, schedule: Q01DX001 (ip), vehicle: suspension in saline 86 % of control

CC(CNCCN)C[Si](C)(C)C (stereo unspecified)
inactive: dose: 6.25 mg/kg/injection, schedule: Q01DX009 (ip), vehicle: saline 95 % of control | dose: 12.5 mg/kg/injection, schedule: Q01DX009 (ip), vehicle: saline 87 % of control | [2] 95 % of control

SC1CCCN(Cc2ccccc2)C1 (stereo unspecified)
inactive: [12] 117 % of control | [13] 108 % of control | [14] 110 % of control

O=C1c2ccccc2S(=O)(=O)N1CCN(CCN1C(=O)c2ccccc2S1(=O)=O)c1ccccc1
inactive: [3] 92 % of control | [4] 100 % of control | [5] 100 % of control

CCNC1CCC(Nc2ccnc3cc(Cl)ccc23)CC1 (stereo unspecified)
inactive: [6] 95 % of control | [7] 87 % of control

O=Nc1c(O)c(Cl)cc2ccccc12
inactive: dose: 3.12 mg/kg/injection, schedule: Q01DX005 (ip), vehicle: saline with Tween-80 101 % of control | dose: 6.25 mg/kg/injection, schedule: Q01DX005 (ip), vehicle: saline with Tween-80 103 % of control

COc1cc(C(NC(N)=O)c2cc3c(cc2OC(C)=O)OCO3)cc(OC)c1OC (stereo unspecified)
inactive: dose: 60.0 mg/kg/injection, schedule: Q01DX005 (ip), vehicle: Klucel (hydroxypropylcellulose) (HPC) 90 % of control | dose: 120.0 mg/kg/injection, schedule: Q01DX005 (ip), vehicle: Klucel (hydroxypropylcellulose) (HPC) 86 % of control

CC(/C=C/c1cccc(C)c1)=N\NC(N)=S
inactive: dose: 3.75 mg/kg/injection, schedule: Q01DX005 (ip), vehicle: Klucel (hydroxypropylcellulose) (HPC) 106 % of control | dose: 7.5 mg/kg/injection, schedule: Q01DX005 (ip), vehicle: Klucel (hydroxypropylcellulose) (HPC) 105 % of control | dose: 30.0 mg/kg/injection, schedule: Q01DX005 (ip), vehicle: Klucel (hydroxypropylcellulose) (HPC) 122 % of control

Cc1nnc(N/N=C/c2ccccc2)n1/N=C\c1ccccc1
inactive: [15] 101 % of control | [16] 100 % of control | dose: 400.0 mg/kg/injection, schedule: Q04DX003 (ip), vehicle: Klucel (hydroxypropylcellulose) (HPC) 105 % of control

Cc1c(Cl)c(Cl)nn1C(C)C(=O)N(C)C (stereo unspecified)
inactive: [15] 95 % of control | [16] 95 % of control

CCCCc1c(C#N)c(=O)n2c(N)c(C#N)cnc2c1SC
inactive: [10] 93 % of control | [9] 93 % of control | [11] 87 % of control

Cc1cc2c(cc1[N+](=O)[O-])NC(CNC(C)C)CC2 (stereo unspecified)
inactive: dose: 50.0 mg/kg/injection, schedule: Q01DX009 (ip), vehicle: saline with Tween-80 101 % of control | dose: 100.0 mg/kg/injection, schedule: Q01DX009 (ip), vehicle: saline with Tween-80 105 % of control | dose: 200.0 mg/kg/injection, schedule: Q01DX009 (ip), vehicle: saline with Tween-80 108 % of control

COc1cccc2sc(-c3ccccc3)cc(=O)c12
inactive: [6] 93 % of control | [7] 93 % of control | [8] 96 % of control

O=C(Nc1cc(Cl)cc(Cl)c1)OC1CC2CC1C1CC3OC3C21 (stereo unspecified)
inactive: [6] 94 % of control | [7] 99 % of control | [8] 92 % of control

CSC1=Nc2ccccc2N=C(N2CCCC2)C1
inactive: [6] 103 % of control | [7] 97 % of control | [8] 97 % of control

O=c1nc2n(CC(O)C(O)C(O)C(O)CO)c3cc(Cl)c(Cl)cc3nc-2c(=O)[nH]1 (stereo unspecified)
inactive: [12] 105 % of control | [13] 111 % of control

Cc1cc2c(c3c1c(=O)c1ccccc1n3C)C=CC(C)(C)O2
inactive: [12] 114 % of control | [13] 108 % of control | [14] 120 % of control | dose: 300.0 mg/kg/injection, schedule: Q01DX005 (ip), vehicle: saline with Tween-80 120 % of control

COc1ccc(C(Nc2ccc([N+](=O)[O-])cc2)P(=O)(c2ccccc2)c2ccccc2)cc1 (stereo unspecified)
inactive: [10] 99 % of control | [9] 92 % of control | [11] 88 % of control
